Experimental data as given in article PMC10901950, “Neuroprotective and Anti-inflammatory Effects of Rubiscolin-6 Analogs with Proline Surrogates in Position 2” (Neurochemical Research, 2023).
Numbered stars: 1 amine (or outer) side, 2 acyl side, 3 side chain; on linkers, the order of the positions; unused ones are H or OH. Square brackets hold non-standard residues; d marks the D form. Ends that are not written are not given here. Peptide text beside a SMILES is read from it. Nip(3R) = O=C([C@@H]1CCCN([*:1])C1)[*:2]; Dmt = Cc1cc(O)cc(C)c1C[C@H](N)C(=O)O; Inp = O=C(O)C1CCNCC1

Tests used:
[1] = test system: SH-SY5Y cells; assay: Neuroprotection in 6-OHDA-treated SH-SY5Y cells (MTT); type: cell-based, human; settings: for neuroprotection after pre-treatment with LY 294002: LY 294002 (PI3-K inhibitor) 20 µM; for neuroprotection after pre-treatment with LY 294002 / neuroprotective effect after pre-treatment with PD 98059: 30 min before peptide and 6-OHDA 100 µM; for neuroprotective effect after pre-treatment with PD 98059: PD 98059 (MEK 1 inhibitor) 50 µM; for peptide neuroprotection with opioid receptor antagonists: β-FNA 10 µM or NLT 10 µM 30 min before peptide (1 and/or 10 µM) and 6-OHDA 100 µM, 24 h
Protocol: The neuroprotective experiments were performed in an in vitro model of a human neuroblastoma cell line (SH-SY5Y) obtained from the German Collection of Microorganisms and Cell Cultures GmbH (DSMZ) Bank (ACC 209). Cells were cultured in Dulbecco’s Modified Eagle’s Medium: Nutrient Mixture F12 (DMEM:F12) supplemented with 1% antibiotic/antimycotic (Amphotericin B, Penicillin and Streptomycin) (Biowest, Nuaillé, France) and 10% (v/v) Fetal Bovine Serum (FBS) (Biowest, Riverside, MO, USA). The anti-inflammatory experiments were performed in an in vitro model of mouse macrophage-like RAW 264.7 cells, purchased from American Type Culture Collection (ATCC, Manassas, VA, USA). Cells were maintained in DMEM medium (Gibco™, Grand Island, NY) and supplemented with 10% bovine calf serum (BCS) (Gibco™, Grand Island, NY) and 1% penicillin–streptomycin (Sigma-Aldrich, St. Louis, MO, USA). Cell cultures were kept at 37 °C in 5% CO2/humidified air.
Cells were incubated with peptides (0.1–10 µM) for 24 h to assess their cytotoxic activity. In the neuroprotective model, SH-SY5Y cells were exposed to 6-OHDA (100 µM) in the absence/presence of peptide at non-toxic concentrations (0.1–10 µM). When needed, a 30 min pre-incubation step with β-funaltrexamine (β-FNA, µ-opioid receptor antagonist, 10 µM), naltrindole (NLT, δ-opioid receptor antagonist, 10 µM), 2’-amino-3’-methoxyflavone (PD 98059, MAPK kinase 1 (MEK 1) inhibitor, 50 µM) or 2-(4-morpholinyl)-8-phenyl-4H-1-benzopyran-4-one (LY 294002, PI3-K inhibitor, 20 µM). Stimulation was terminated by aspiration of the medium and adding 100 µL MTT (1.2 mM) per well. Cells were incubated for 1 h at 37 °C. After this time, MTT was removed, and 100 µL DMSO was added. The resulting absorbance was read in a microplate reader (Biotek, Epoch/2 microplate reader, Winooski, VT, USA) at 570 nm.
Cell metabolic activity (cytotoxicity) was calculated as the percentage of the value obtained for cells incubated with compounds compared to control cells treated with the medium.

[2] = test system: Caspase-3; assay: Caspase-3 activity in 6-OHDA-treated SH-SY5Y cells; type: cell-based, human; settings: 6-OHDA 100 µM, 6 h
Protocol: Caspase-3 activity was assessed using “Caspase-3 fluorometric assay” (Sigma, St. Louis, MO, USA) with minor changes adapted by Silva et al.. The cells were treated with 6-OHDA (100 µM) for 6 h in the presence or absence of peptides. After this period, the culture medium was removed, and cells were rinsed with ice-cold PBS and collected by centrifugation at 3300×g for 5 min. The pellets were resuspended in lysis buffer, incubated for about 20 min on ice and finally centrifuged at 22,500×g, 4 °C, for 20 min. Cell lysates were processed following the manufacturer’s protocol, and fluorescence was read at wavelengths of 360 nm (excitation) and 460 nm (emission). Caspase-3 activity was calculated through the curve slope and presented as Δ fluorescence (a.u.)/mg of protein/min). Staurosporine (STAU, 1 µM) was used as positive control.

[3] = test system: LPS-stimulated RAW 264.7 cells; assay: Nitric oxide production in LPS-stimulated RAW 264.7 cells (Griess); type: cell-based, mouse; settings: LPS 1 µg/mL, 24 h
Protocol: The level of NO production was determined in RAW 264.7 cells. Briefly, after cells attachment, they were treated with LPS (Millipore Sigma, Darmstadt, Germany) at 1 µg/mL for 24 h, and then the peptides were added for an additional 24 h. After cells’ treatment, the medium was collected, and the accumulation of NO metabolite in the cell culture supernatant was measured using Griess reagent (1% sulfanilamide and 0.1% naphthylethylenediamine dihydrochloride; Sigma Aldrich), where 50 µL of the supernatant was mixed with 50 µL of Griess reagent (40 mg/mL) in a 96-well plate. After incubation at room temperature and darkness for 10 min, the absorbance was measured at 540 nm. Cells treated with LPS without samples were used as the positive control of the inflammatory response.

[4] = test system: LPS-stimulated RAW 264.7 cells; assay: Lipid peroxidation in LPS-stimulated RAW 264.7 cells (DPPP probe); type: cell-based, mouse; settings: 24 h; for decrease of membrane lipids' oxidation: lowest concentration used (0.1 µM)
Protocol: The level of lipid peroxidation was evaluated after RAW 264.7 cells incubation with peptides for 24 h. Then, the cells were loaded with 50 µM diphenyl-1-pyrenylphosphine (DPPP) probe for 15 min, and fluorescence was read at 360 nm excitation and 460 nm emission wavelengths.

[5] = test system: Male Swiss albino CD1 mice; assay: Spontaneous locomotor activity after icv injection; type: in vivo, mouse; settings: healthy mice, recording from 10 min after injection, 8-10 mice per group
Protocol: Male Swiss albino CD1 mice (JANVIER LABS, Le Genest-Saint-Isle, France), weighing 20–26 g, were used in the in vivo experiments. The animals were housed in Makrolon cages (L: 40 cm, W: 25 cm, H: 18 cm; 20 mice/cage), with free access to a standard semisynthetic laboratory diet (RM3, SDS, DIETEX-France, Saint-Gratien, France). All animals were kept in a ventilated room, at a temperature of 22 ± 1 °C, under a 12-h light/12-h dark cycle (lights on between 7:00 a.m. and 7:00 p.m.).
Intracerebroventricular (icv) injections (10 µL/mouse) of R-6 and its analogs were performed in the left brain ventricle of manually immobilized mice, with a Hamilton microsyringe ([…], Hamilton, Bonaduz, Switzerland) connected to a needle (length: 3.5 mm, diameter: 0.5 mm), as described elsewhere. Intracerebroventricular injections were performed by an experienced investigator, who frequently controlled the regularity and success of the injections using a methylene blue dye and observed (after sacrifice and frontal brain sectioning) that the injection was successful in more than 95% of trials. It was also verified in several animals, after sacrifice, that the mark of the needle puncture on the parietal bone was located at least 1.5 mm behind the bregma and at least 2.5 mm before the lambda, with laterality between 1 and 2 mm relative to the brain median line. This corresponds to stereotaxic coordinates of the left lateral ventricle in Lehmann’s atlas for mice (Lehmann, 1974): anteriority 2.95e4.15 mm, laterality 0.95e2 mm, and depth 3e4.5 mm. All drugs for icv administration were dissolved in 0.9% NaCl just before treatment. The icv injection method was approved by the Regional Ethical Committee for Animal Experimentation (Normandy; no. N/10-04-04-12).
Tested peptides were dissolved in DMSO and diluted with saline solution to the desired concentrations.
Locomotor activity was assessed automatically in a computerized actimeter (Omnitech Electronics, Inc., Columbus, Ohio, USA) which monitored horizontal displacements and vertical movements. Ten minutes after the icv injection, mice were placed individually in 20 × 20 × 30 cm compartments in a dimly illuminated and quiet room, and then motor activity was recorded. The responses were expressed as the number of crossed beams by the mouse during three consecutive 20 min periods.

[6] = peptide 0.1 µM (lowest concentration)

| Compound | neuroprotection after pre-treatment with LY 294002 [1] | neuroprotective effect after pre-treatment with PD 98059 [1] | peptide neuroprotection with opioid receptor antagonists [1] | effect on Caspase-3 activity induced by 6-OHDA ([2]; peptides 0.1-10 µM) | effect on LPS-induced NO production [3, 6] | decrease of membrane lipids' oxidation [4] | effect on spontaneous (horizontal) locomotor activity [5] | NO level reached (relative to unstimulated control) ([3]; LPS alone exceeded 330%) | effect on LPS-induced NO production ([3]; peptide 10 µM) | inhibition of peroxidation ([4]; 0.1 µM) | effect on lipid peroxidation ([4]; 0.1-10 µM) | effect on Caspase-3 activity induced by 6-OHDA ([2]; peptide 10 µM) |
| --- | --- | --- | --- | --- | --- | --- | --- | --- | --- | --- | --- | --- |
| CC(C)C[C@H](NC(=O)C1CCN(C(=O)[C@@H](N)Cc2ccc(O)cc2)CC1)C(=O)N[C@@H](CC(=O)O)C(=O)N[C@@H](CC(C)C)C(=O)N[C@@H](Cc1ccccc1)C(=O)O [analog 3, Tyr-Inp-Leu-Asp-Leu-Phe-OH] (H-Y[Inp]LDLF-OH) | significantly weakened | didn’t inhibit | did not abolish | most efficiently | most effectively reduced | ~10% | do not affect locomotor activity | – | – | – | – | – |
| Cc1cc(O)cc(C)c1C[C@H](N)C(=O)N1CCC[C@@H](C(=O)N[C@@H](CC(C)C)C(=O)N[C@@H](CC(=O)O)C(=O)N[C@@H](CC(C)C)C(=O)N[C@@H](Cc2ccccc2)C(=O)O)C1 [analog 4, Dmt-(R)-Nip-Leu-Asp-Leu-Phe-OH] (H-[Dmt][Nip(3R)]LDLF-OH) | – | – | – | – | most effectively reduced | – | – | – | – | – | – | – |
| CC(C)C[C@H](NC(=O)C1CCN(C(=O)[C@@H](N)Cc2ccc(O)cc2)CC1)C(=O)N[C@@H](CC(=O)O)C(=O)N[C@@H](CC(C)C)C(=O)N[C@@H](Cc1ccccc1)C(N)=O [analog 7, Tyr-Inp-Leu-Asp-Leu-Phe-NH2] (H-Y[Inp]LDLF-NH2) | significantly weakened | didn’t inhibit | did not abolish | most efficiently | most effectively reduced | ~10% | do not affect locomotor activity | ~125% | – | – | – | – |
| Cc1cc(O)cc(C)c1C[C@H](N)C(=O)N1CCC(C(=O)N[C@@H](CC(C)C)C(=O)N[C@@H](CC(=O)O)C(=O)N[C@@H](CC(C)C)C(=O)N[C@@H](Cc2ccccc2)C(=O)O)CC1 [analog 5, Dmt-Inp-Leu-Asp-Leu-Phe-OH] (H-[Dmt][Inp]LDLF-OH) | significantly weakened | didn’t inhibit | some slight µ- and δ-opioid receptor antagonist effect is evident | active only at the highest dose | most effectively reduced | ~10% | do not affect locomotor activity | – | comparable to the level determined in unstimulated cells | most significant inhibition | – | – |
| YPLDLF [R-6, rubiscolin-6] | – | – | – | didn’t decrease | – | – | do not affect locomotor activity | – | – | – | no effect | – |
| Cc1cc(O)cc(C)c1C[C@H](N)C(=O)N1CCC[C@H]1C(=O)N[C@@H](CC(C)C)C(=O)N[C@@H](CC(=O)O)C(=O)N[C@@H](CC(C)C)C(=O)N[C@@H](Cc1ccccc1)C(=O)O [analog 1, Dmt-Pro-Leu-Asp-Leu-Phe-OH] (H-[Dmt]PLDLF-OH) | significantly weakened | didn’t inhibit | did not abolish | – | – | – | – | – | – | – | – | showed the potency to suppress |
